Tests used:
Type in all cases: in vivo
[1] = tested on: Hordeum vulgare; assay: Preemergence herbicidal activity (Example 67); design: herbicide rating, HORVW: scale not given here; conditions: pre, 800 g/ha; for herbicide rating, HORVW: rated about 1-3 weeks after treatment
In short: (§1)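 Test solutions in acetone with 0.5% TRITON X-155, diluted with water, sprayed at 800g/ha (400 L/ha) onto the soil surface of seeded cups. Cups kept under greenhouse conditions and rated on a standard scale about 1-3 weeks after treatment.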

[2] = tested on: Ipomoea hederacea; assay: Postemergence herbicidal activity (Example 67); conditions: pos, 800 g/ha; for herbicide rating, IPOHE: rated after 10-21 days
In short: (§2)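 Seedlings aged 3–6 weeks received a postemergence spray of compound in acetone with 0.5% Triton X-155, diluted in water, at 800 g/ha in 400 L/ha. Plants were then kept in the greenhouse and rated 10–21 days after treatment.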

[3] = tested on: Zea mays; assay: Postemergence herbicidal activity (Example 67); conditions: pos, 800 g/ha; for herbicide rating, ZEAMX: rated after 10-21 days
In short: as §2

[4] = tested on: Triticum aestivum; assay: Postemergence herbicidal activity (Example 67); conditions: pos, 800 g/ha; for herbicide rating, TRZAW: rated after 10-21 days
In short: as §2

[5] = tested on: Amaranthus retroflexus; assay: Postemergence herbicidal activity (Example 67); conditions: pos, 800 g/ha; for herbicide rating, AMARE: rated after 10-21 days
In short: as §2

[6] = tested on: Setaria viridis; assay: Postemergence herbicidal activity (Example 67); conditions: pos, 800 g/ha; for herbicide rating, SETVI: rated after 10-21 days
In short: as §2

[7] = tested on: Galium aparine; assay: Postemergence herbicidal activity (Example 67); conditions: pos, 800 g/ha; for herbicide rating, GALAP: rated after 10-21 days
In short: as §2

[8] = tested on: Alopecurus myosuroides; assay: Postemergence herbicidal activity (Example 67); conditions: pos, 800 g/ha; for herbicide rating, ALOMY: rated after 10-21 days
In short: as §2

[9] = tested on: Veronica persica; assay: Postemergence herbicidal activity (Example 67); conditions: pos, 800 g/ha; for herbicide rating, VERPE: rated after 10-21 days
In short: as §2

[10] = tested on: Abutilon theophrasti; assay: Postemergence herbicidal activity (Example 67); conditions: pos, 800 g/ha; for herbicide rating, ABUTH: rated after 10-21 days
In short: as §2

[11] = tested on: Helianthus annuus; assay: Postemergence herbicidal activity (Example 67); conditions: pos, 800 g/ha; for herbicide rating, HELAN: rated after 10-21 days
In short: as §2

[12] = tested on: Hordeum vulgare; assay: Postemergence herbicidal activity (Example 67); conditions: pos, 800 g/ha; for herbicide rating, HORVW: rated after 10-21 days
In short: as §2

[13] = tested on: Chenopodium album; assay: Postemergence herbicidal activity (Example 67); conditions: pos, 800 g/ha; for herbicide rating, CHEAL: rated after 10-21 days
In short: as §2

[14] = tested on: Alopecurus myosuroides; assay: Preemergence herbicidal activity (Example 67); design: herbicide rating, ALOMY: scale not given here; conditions: pre, 800 g/ha; for herbicide rating, ALOMY: rated about 1-3 weeks after treatment
In short: as §1

[15] = tested on: Setaria viridis; assay: Preemergence herbicidal activity (Example 67); design: herbicide rating, SETVI: scale not given here; conditions: pre, 800 g/ha; for herbicide rating, SETVI: rated about 1-3 weeks after treatment
In short: as §1

[16] = tested on: Triticum aestivum; assay: Preemergence herbicidal activity (Example 67); design: herbicide rating, TRZAW: scale not given here; conditions: pre, 800 g/ha; for herbicide rating, TRZAW: rated about 1-3 weeks after treatment
In short: as §1

[17] = tested on: Ipomoea hederacea; assay: Preemergence herbicidal activity (Example 67); conditions: pre, 800 g/ha; for herbicide rating, IPOHE: rated about 1-3 weeks after treatment
In short: as §1

[18] = tested on: Zea mays; assay: Preemergence herbicidal activity (Example 67); conditions: pre, 800 g/ha; for herbicide rating, ZEAMX: rated about 1-3 weeks after treatment
In short: as §1

[19] = tested on: Amaranthus retroflexus; assay: Preemergence herbicidal activity (Example 67); conditions: pre, 800 g/ha; for herbicide rating, AMARE: rated about 1-3 weeks after treatment
In short: as §1

[20] = tested on: Galium aparine; assay: Preemergence herbicidal activity (Example 67); conditions: pre, 800 g/ha; for herbicide rating, GALAP: rated about 1-3 weeks after treatment
In short: as §1

[21] = tested on: Veronica persica; assay: Preemergence herbicidal activity (Example 67); conditions: pre, 800 g/ha; for herbicide rating, VERPE: rated about 1-3 weeks after treatment
In short: as §1

[22] = tested on: Abutilon theophrasti; assay: Preemergence herbicidal activity (Example 67); conditions: pre, 800 g/ha; for herbicide rating, ABUTH: rated about 1-3 weeks after treatment
In short: as §1

[23] = tested on: Helianthus annuus; assay: Preemergence herbicidal activity (Example 67); conditions: pre, 800 g/ha; for herbicide rating, HELAN: rated about 1-3 weeks after treatment
In short: as §1

[24] = tested on: Chenopodium album; assay: Preemergence herbicidal activity (Example 67); conditions: pre, 800 g/ha; for herbicide rating, CHEAL: rated about 1-3 weeks after treatment
In short: as §1

CCCCc1nsc(C(=O)N[C@@H](C)c2ccccc2)n1 [Example 32]
herbicide rating, HORVW [1]: 0 | herbicide rating, IPOHE [2]: 5 (45-64%) | herbicide rating, ZEAMX [3]: 0 | herbicide rating, TRZAW [4]: 3 (16-29%) | herbicide rating, AMARE [5]: 3 (16-29%) | herbicide rating, SETVI [6]: 7 (80-90%) | herbicide rating, GALAP [7]: 6 (65-79%) | herbicide rating, ALOMY [8]: 2 (6-15%) | herbicide rating, VERPE [9]: 0 | herbicide rating, ABUTH [10]: 5 (45-64%) | herbicide rating, HELAN [11]: 5 (45-64%) | herbicide rating, HORVW [12]: 2 (6-15%) | herbicide rating, CHEAL [13]: 5 (45-64%) | herbicide rating, ALOMY [14]: 0 | herbicide rating, SETVI [15]: 0 | herbicide rating, TRZAW [16]: 0 | herbicide rating, IPOHE [17]: 0 | herbicide rating, ZEAMX [18]: 0 | herbicide rating, AMARE [19]: 0 | herbicide rating, GALAP [20]: 0 | herbicide rating, VERPE [21]: 5 (45-64%) | herbicide rating, ABUTH [22]: 0 | herbicide rating, HELAN [23]: 0 | herbicide rating, CHEAL [24]: 5 (45-64%)

COCCc1nsc(C(=O)N[C@@H](C)c2ccccc2)n1 [Example 34]
herbicide rating, HORVW [1]: 0 | herbicide rating, IPOHE [2]: 4 (30-44%) | herbicide rating, ZEAMX [3]: 0 | herbicide rating, TRZAW [4]: 3 (16-29%) | herbicide rating, AMARE [5]: 0 | herbicide rating, SETVI [6]: 3 (16-29%) | herbicide rating, GALAP [7]: 1 (1-5%) | herbicide rating, ALOMY [8]: 3 (16-29%) | herbicide rating, VERPE [9]: 2 (6-15%) | herbicide rating, ABUTH [10]: 1 (1-5%) | herbicide rating, HELAN [11]: 2 (6-15%) | herbicide rating, HORVW [12]: 0 | herbicide rating, CHEAL [13]: 2 (6-15%) | herbicide rating, ALOMY [14]: 0 | herbicide rating, SETVI [15]: 0 | herbicide rating, TRZAW [16]: 0 | herbicide rating, IPOHE [17]: 0 | herbicide rating, ZEAMX [18]: 0 | herbicide rating, AMARE [19]: 0 | herbicide rating, GALAP [20]: 0 | herbicide rating, VERPE [21]: 3 (16-29%) | herbicide rating, ABUTH [22]: 0 | herbicide rating, HELAN [23]: 0 | herbicide rating, CHEAL [24]: 0

COc1ccc(-c2nsc(C(=O)NCc3cccs3)n2)cc1 [Example 36]
herbicide rating, HORVW [1]: 0 | herbicide rating, IPOHE [2]: 3 (16-29%) | herbicide rating, ZEAMX [3]: 0 | herbicide rating, TRZAW [4]: 3 (16-29%) | herbicide rating, AMARE [5]: 2 (6-15%) | herbicide rating, SETVI [6]: 7 (80-90%) | herbicide rating, GALAP [7]: 2 (6-15%) | herbicide rating, ALOMY [8]: 3 (16-29%) | herbicide rating, VERPE [9]: 2 (6-15%) | herbicide rating, ABUTH [10]: 1 (1-5%) | herbicide rating, HELAN [11]: 4 (30-44%) | herbicide rating, HORVW [12]: 0 | herbicide rating, CHEAL [13]: 3 (16-29%) | herbicide rating, ALOMY [14]: 0 | herbicide rating, SETVI [15]: 0 | herbicide rating, TRZAW [16]: 0 | herbicide rating, IPOHE [17]: 2 (6-15%) | herbicide rating, ZEAMX [18]: 3 (16-29%) | herbicide rating, AMARE [19]: 0 | herbicide rating, GALAP [20]: 0 | herbicide rating, VERPE [21]: 0 | herbicide rating, ABUTH [22]: 0 | herbicide rating, HELAN [23]: 0 | herbicide rating, CHEAL [24]: 0

C[C@H](NC(=O)c1nsc(-c2ccc(F)cc2)n1)c1ccccc1 [Example 40, (S)-5-(4-Fluorophenyl)-[1,2,4]thiadiazole-3-carboxylic acid, 1-(phenylethyl)amide]
HOR VW rating [1]: 0 | IPO HE rating [2]: 8 (91-99%) | ZEA MX rating [3]: 5 (45-64%) | TRZ AW rating [4]: 4 (30-44%) | AMA RE rating [5]: 8 (91-99%) | SET VI rating [6]: 9 (100% effect) | GAL AP rating [7]: 8 (91-99%) | ALO MY rating [8]: 5 (45-64%) | VER PE rating [9]: 8 (91-99%) | ABU TH rating [10]: 8 (91-99%) | HEL AN rating [11]: 9 (100% effect) | HOR VW rating [12]: 6 (65-79%) | CHE AL rating [13]: 8 (91-99%) | ALO MY rating [14]: 0 | SET VI rating [15]: 4 (30-44%) | TRZ AW rating [16]: 0 | IPO HE rating [17]: 0 | ZEA MX rating [18]: 0 | AMA RE rating [19]: 0 | GAL AP rating [20]: 0 | VER PE rating [21]: 5 (45-64%) | ABU TH rating [22]: 8 (91-99%) | HEL AN rating [23]: 4 (30-44%) | CHE AL rating [24]: 4 (30-44%)

Source: patent EP0726261A1, “Herbidical 1,2,4 thiadiazoles” (American Cyanamid Company, priority 1995, dated 1996)
